Results published in US10442837B2, “Scorpion venom heat-resistant synthetic peptide and applications thereof” (priority 2016, dated 2019).
Peptide text beside a SMILES is read from it.

Legend:
[1] = test system: lithium-pilocarpine epilepsy model rats; assay: Lithium-pilocarpine refractory epilepsy chronic model, episodes; assay type: in vivo, SD rats; settings: 300 mg/kg, n = 9
Protocol: (1) Selection and groups of animals that 180 g healthy male SD rats are selected. Lithium-pilocarpine ip (intraperitoneal administration) 300 mg/kg is used to induce temporal lobe epilepsy episodes. After 15 days of acute epilepsy episode, epilepsy rats are randomly divided into a model group and a model administration group. […] The levels of epilepsy are observed and recorded, and graded according to Racine as the evaluation criteria.

Kunming mice [2] = assay: Acute toxicity test, intraperitoneal injection; assay type: in vivo; settings: 78.6 mg/kgBW ip
Kunming mice [3] = assay: Acute toxicity test, intraperitoneal injection; assay type: in vivo
Description: 1) Main Observation Indicators:
(2) Minimal lethal dose (MLD): a dose that causes death in individual tested animals;
(3) The highest dose of nontoxic reaction (highest nontoxic dose): that is, no observed adverse effect level ([…]), i.e. the highest dose under which no injury is found for animals in a certain period of time;
(4) Minimum toxic reaction dose: minimum dose of toxic reaction in animals: that is the lowest dose of the toxic reaction in animals whose toxic responses are just caused.
(1) Tested animals: Kunming mice, half male and half female (healthy adult, weight 19-20 g);
(2) Subjects: SVHRSP: • a. source: BmK scorpion venom extract purchased from Henan Yichang Xinxin Scorpion Factory (May 28, 2012); • b. Lot No: P160418-CQ455216; • c. Content (or specification): 10 mg/piece; • d. Preservation conditions and preparation methods: −20° C. for long-term preservation, 4° C. for preservation within 7-10 d, and redissolved with millipore water when in use.
(3) Administration Route: respectively ip (intraperitoneal injection) route (the largest volume commonly used in mice ip route administration is 0.1-1.0 ml/20 gBW) the optimal administration doses to the animals (the doses are different, but the administration capacity is identical) are selected according to the route of administration, and 0.2 ml/20 gBW is adopted for the ip administration routes in this experiment.
According to the approximate lethal dose method, list the possible sequences:
the possible maximum tolerance dose and the possible minimum lethal dose of the SVHRSP are estimated according to the acute toxicity test results of the former scorpion venom heat-resistant polypeptide on Kunming mice. Then, a dose sequence table containing several doses is designed according to the 50% incremental method:
The possible lethal dose ranges (115.2, 76.8, 51.2, 34.1 mg/kg) are found from the estimated dose sequence list, where each dose is given to one animal, the minimum lethal dose and the maximum tolerated dose are measured, and then the dose between the two is given to an animal. If the animal under this dose doesn't die, the range between this dose and the minimum lethal dose is the approximate lethal dose range; if the animal under this dose dies, the range between this dose and the maximum tolerance dose is the approximate lethal dose range.

Q: Which “Total Episode Averages superimposed ± Standard Deviation” value ([1]; First day) does the source give for CCCC(CCC)C(=O)[O-].[Na+] [sodium valproate] here?
A: The value was 2.67 ± 0.85.

Q: And the “Total Episode Averages superimposed ± Standard Deviation” value ([1]; First eight days)?
A: The value was 15.11 ± 2.73.

Q: And the “Total Episode Averages superimposed ± Standard Deviation” value ([1]; First eleven days)?
A: The value was 18.89 ± 3.13.

Q: And the “Total Episode Averages superimposed ± Standard Deviation” value ([1]; First fifteen days)?
A: The value was 23.56 ± 3.79.

Q: And the “Total Episode Averages superimposed ± Standard Deviation” value ([1]; First five days)?
A: Its value is 11.67 ± 2.24.

Q: What about the “Total Episode Averages superimposed ± Standard Deviation” value ([1]; First four days) of the same compound?
A: The value was 9.56 ± 1.96.

Q: What about the “Total Episode Averages superimposed ± Standard Deviation” value ([1]; First fourteen days) of the same compound?
A: Its value is 22.67 ± 3.56.

Q: What about the “Total Episode Averages superimposed ± Standard Deviation” value ([1]; First nine days) of the same compound?
A: Its value is 16.33 ± 3.05.

Q: And the “Total Episode Averages superimposed ± Standard Deviation” value ([1]; First seven days)?
A: The value was 13.89 ± 2.45.

Q: What about the “Total Episode Averages superimposed ± Standard Deviation” value ([1]; First six days) of the same compound?
A: The value was 12.67 ± 2.30.

Q: And the “Total Episode Averages superimposed ± Standard Deviation” value ([1]; First ten days)?
A: The value was 17.55 ± 2.91.

Q: What about the “Total Episode Averages superimposed ± Standard Deviation” value ([1]; First thirteen days) of the same compound?
A: Its value is 21.78 ± 3.58.

Q: And the “Total Episode Averages superimposed ± Standard Deviation” value ([1]; First twelve days)?
A: The value was 20.56 ± 3.33.

Q: And the “Total Episode Averages superimposed ± Standard Deviation” value ([1]; First two days)?
A: Its value is 5.56 ± 1.27.

Q: What does the source list for CC(C)C[C@H](NC(=O)[C@@H](NC(=O)[C@@H](N)CCCCN)C(C)C)C(=O)N[C@@H](CC(N)=O)C(=O)NCC(=O)N1CCC[C@H]1C(=O)N[C@@H](CCC(=O)O)C(=O)N[C@@H](CCC(=O)O)C(=O)N[C@@H](CCC(=O)O)C(=O)N[C@@H](C)C(=O)N[C@@H](C)C(=O)N[C@@H](C)C(=O)N1CCC[C@H]1C(=O)N[C@@H](C)C(=O)N[C@@H](CCC(=O)O)C(=O)O [SVHRSP] (H-KVLNGPEEEAAAPAE-OH)?
A: Lethal (%) (Kunming mice [2]): 0%; Survival (%) (Kunming mice [2]): 100%; Lethal (%) (Kunming mice [3]; 115.2 mg/kgBW ip): 0%; Survival (%) (Kunming mice [3]; 115.2 mg/kgBW ip): 100%; Lethal (%) (Kunming mice [3]; 172.8 mg/kgBW ip): 0%; Survival (%) (Kunming mice [3]; 172.8 mg/kgBW ip): 100%; Lethal (%) (Kunming mice [3]; 500 mg/kgBW ip): 0%; Survival (%) (Kunming mice [3]; 500 mg/kgBW ip): 100%; Lethal (%) (Kunming mice [3]; 2000 mg/kgBW ip): 0%; Survival (%) (Kunming mice [3]; 2000 mg/kgBW ip): 100%; Toxic Reaction (Kunming mice [3]; 2000 mg/kgBW ip): no any toxic reaction is observed; ratio of medicinal safety and pharmacodynamic activity (2000/0.05) (Kunming mice [3]; ip 2000 mg/kg vs 0.05 mg/kg effective dose): > 40,000 times; maximum non-toxic dose (highest nontoxic dose, no observed adverse effect level) (Kunming mice [3]; ip, up to 2000 mg/kg·BW): has not reached yet
